System: T1, PleoLip369
T1 construct: signal peptide removed, codon-optimised synthetic gene behind alpha-factor signal, secreted from Pichia pastoris BG-10, purified by CM Sepharose; catalytic Ser266, Asp394, His512, pentapeptide GESAG
Test: spectrophotometric p-nitrophenol release, […] nm; non-linear regression
Format: biochemical, Pleurotus ostreatus
Settings: pH 8; substrate 0.001-1 mM

Km [µM]	Structure (SMILES)
510 ± 60	CCCCCCCC(=O)Oc1ccc([N+](=O)[O-])cc1 [pNP-C8, p-nitrophenyl octanoate]
130 ± 20	CCCCCCCCCC(=O)Oc1ccc([N+](=O)[O-])cc1 [pNP-C10, p-nitrophenyl decanoate]
652 ± 75	CCCCCCCCCCCC(=O)Oc1ccc([N+](=O)[O-])cc1 [pNP-C12, p-nitrophenyl dodecanoate]

System: T2, PleoLip241
T2 construct: signal peptide removed, codon-optimised synthetic gene behind alpha-factor signal, secreted from Pichia pastoris BG-10, purified by CM Sepharose; catalytic Ser273, Asp403, His520, pentapeptide GQSAG
Test: as above
Format: biochemical, Pleurotus ostreatus
Settings: pH 8; substrate 0.001-1 mM

Km [µM]	Structure (SMILES)
30 ± 5	CCCCCCCCCC(=O)Oc1ccc([N+](=O)[O-])cc1 [pNP-C10, p-nitrophenyl decanoate]
150 ± 6	CCCCCCCCCCCC(=O)Oc1ccc([N+](=O)[O-])cc1 [pNP-C12, p-nitrophenyl dodecanoate]
85 ± 4	CCCCCCCCCCCCCC(=O)Oc1ccc([N+](=O)[O-])cc1 [pNP-C14, p-nitrophenyl myristate]
350 ± 38	CCCCCCCCCCCCCCCC(=O)Oc1ccc([N+](=O)[O-])cc1 [pNP-C16, p-nitrophenyl palmitate]

Reference: article PMC5612753, “New lipases by mining of Pleurotus ostreatus genome” (PLoS ONE, 2017)
